Results as given in article PMC9841523 (Journal of Medicinal Chemistry, 2022).
Read-outs that look alike come from different tables or passages of the source.

Legend:
[1] = target: T1, DNA-PK (Homo sapiens, UniProt P78527); experiment: Nanosyn Lipid Kinase screen; type: biochemical
T1 construct: purchased Promega V4106
Experimental: complex formation) controls.
Nanosyn Lipid Kinase screen. Biochemical inhibition of lipid and related protein kinases was determined by Nanosyn (Santa Clara, CA). […]
ADP formation using ADP-Glo (Promega). Kinase reactions were assembled in 384 well plates in a total volume of 20 µL as follows. […]
Compounds were serially pre-diluted in DMSO and added to the protein samples by acoustic dispensing (200 nL, Labcyte Echo). Concentration of DMSO was equalized to 1% in all samples. All test compounds were tested at 12 concentrations, 3x dilution intervals. The control samples (0%-inhibition in the absence of inhibitor, DMSO only) and 100%-inhibition (in the absence of enzyme) were assembled in replicates of four and were used to calculate %-inhibition in the presence of compounds. […]

[2] = target: hERG ion channel (Homo sapiens, UniProt Q12809); experiment: in vitro hERG inhibition; settings: for inhibition of the hERG ion channel: 10 µM
Chain of hERG ion channel (Q12809 whole entry): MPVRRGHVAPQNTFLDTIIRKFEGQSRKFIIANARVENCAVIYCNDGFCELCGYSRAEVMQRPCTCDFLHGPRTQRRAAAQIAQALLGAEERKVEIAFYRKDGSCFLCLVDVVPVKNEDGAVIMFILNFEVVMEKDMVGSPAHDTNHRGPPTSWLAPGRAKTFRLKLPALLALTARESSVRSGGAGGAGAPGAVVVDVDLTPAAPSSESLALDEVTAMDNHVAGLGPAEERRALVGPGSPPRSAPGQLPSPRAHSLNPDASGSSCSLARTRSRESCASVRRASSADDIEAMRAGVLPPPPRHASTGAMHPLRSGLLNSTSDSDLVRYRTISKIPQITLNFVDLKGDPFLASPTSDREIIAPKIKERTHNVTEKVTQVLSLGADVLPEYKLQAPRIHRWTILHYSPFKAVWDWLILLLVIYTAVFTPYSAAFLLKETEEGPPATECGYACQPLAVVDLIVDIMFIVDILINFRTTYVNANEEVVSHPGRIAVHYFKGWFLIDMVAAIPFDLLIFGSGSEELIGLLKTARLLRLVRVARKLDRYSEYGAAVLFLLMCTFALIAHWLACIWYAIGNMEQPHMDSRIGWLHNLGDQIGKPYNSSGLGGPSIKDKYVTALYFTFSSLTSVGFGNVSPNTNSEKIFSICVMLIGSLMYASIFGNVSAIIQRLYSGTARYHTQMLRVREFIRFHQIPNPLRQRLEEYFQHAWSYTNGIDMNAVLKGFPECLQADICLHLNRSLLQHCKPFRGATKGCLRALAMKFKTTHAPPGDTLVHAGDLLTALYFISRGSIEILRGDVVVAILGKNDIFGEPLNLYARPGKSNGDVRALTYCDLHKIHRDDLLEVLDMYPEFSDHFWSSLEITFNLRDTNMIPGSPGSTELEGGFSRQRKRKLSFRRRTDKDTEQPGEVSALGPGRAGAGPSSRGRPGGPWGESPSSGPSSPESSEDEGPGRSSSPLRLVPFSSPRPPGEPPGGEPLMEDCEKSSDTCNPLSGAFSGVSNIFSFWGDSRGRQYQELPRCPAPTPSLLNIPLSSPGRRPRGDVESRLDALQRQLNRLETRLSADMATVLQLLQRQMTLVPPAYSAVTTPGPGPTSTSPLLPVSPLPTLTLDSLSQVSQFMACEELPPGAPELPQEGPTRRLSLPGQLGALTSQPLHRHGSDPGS

[3] = test system: AMPKa1, AMPKa2; experiment: KiNativ kinase panel; type: cell-based, human; settings: 1 μM, MCF-7 Cells
[4] = target: T2, NuaK2 (Homo sapiens, UniProt Q9H093); experiment: KiNativ kinase panel; type: cell-based; settings: 1 μM; MCF-7 Cells; Lys1; LVAIKSIR
T2 construct: purchased ActivX Biosciences (KiNativ)
T2 sequence (Q9H093 whole entry): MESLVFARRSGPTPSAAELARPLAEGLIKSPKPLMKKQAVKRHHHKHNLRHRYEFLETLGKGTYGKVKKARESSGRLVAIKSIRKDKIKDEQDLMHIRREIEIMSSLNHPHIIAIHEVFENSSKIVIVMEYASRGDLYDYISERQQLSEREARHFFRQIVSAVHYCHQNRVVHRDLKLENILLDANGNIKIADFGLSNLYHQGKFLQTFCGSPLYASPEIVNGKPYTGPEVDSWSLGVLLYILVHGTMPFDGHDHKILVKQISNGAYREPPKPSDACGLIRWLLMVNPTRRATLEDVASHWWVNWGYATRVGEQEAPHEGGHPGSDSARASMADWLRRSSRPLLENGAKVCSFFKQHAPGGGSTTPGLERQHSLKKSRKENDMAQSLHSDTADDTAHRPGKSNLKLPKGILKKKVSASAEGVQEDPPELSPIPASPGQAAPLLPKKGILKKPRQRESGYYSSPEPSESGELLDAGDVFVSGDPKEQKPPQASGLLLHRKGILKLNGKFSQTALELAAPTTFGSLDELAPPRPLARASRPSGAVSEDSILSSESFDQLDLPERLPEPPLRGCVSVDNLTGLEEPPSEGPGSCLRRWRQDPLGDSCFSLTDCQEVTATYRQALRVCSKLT

[5] = target: T3, PKR (Homo sapiens, UniProt P19525); experiment: KiNativ kinase panel; type: cell-based; settings: 1 μM, MCF-7 Cells
T3 construct: MCF7 cells were exposed to; endogenous in cells; host or cells: MCF7
T3 sequence (P19525 whole entry): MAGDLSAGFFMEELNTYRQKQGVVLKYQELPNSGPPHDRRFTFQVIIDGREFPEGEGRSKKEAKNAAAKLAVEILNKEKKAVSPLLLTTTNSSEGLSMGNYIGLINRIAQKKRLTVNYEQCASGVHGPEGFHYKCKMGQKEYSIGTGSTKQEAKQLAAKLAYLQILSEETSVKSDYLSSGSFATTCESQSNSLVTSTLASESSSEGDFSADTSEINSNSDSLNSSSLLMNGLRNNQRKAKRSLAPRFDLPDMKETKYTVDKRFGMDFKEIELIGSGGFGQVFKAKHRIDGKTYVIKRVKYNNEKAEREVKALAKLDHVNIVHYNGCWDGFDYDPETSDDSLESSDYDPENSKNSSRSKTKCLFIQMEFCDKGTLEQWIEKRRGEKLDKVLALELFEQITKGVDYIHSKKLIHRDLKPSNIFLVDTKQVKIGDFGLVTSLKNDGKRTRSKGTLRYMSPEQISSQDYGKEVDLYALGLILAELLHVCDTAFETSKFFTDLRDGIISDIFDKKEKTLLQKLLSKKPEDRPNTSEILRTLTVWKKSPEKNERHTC

[6] = test system: AurA, AurB, AurC; experiment: KiNativ kinase panel; type: cell-based, human; settings: 1 μM; MCF-7 Cells; ATP Loop; GKFGNVYLAR
[7] = test system: PITSLRE; experiment: KiNativ kinase panel; type: cell-based, human; settings: 1 μM; MCF-7 Cells; Lys2; DLKTSNLLLSHAGILK
[8] = test system: KSR1, KSR2; experiment: KiNativ kinase panel; type: cell-based, human; settings: 1 μM, MCF-7 Cells, Activation Loop
[9] = target: T4, CK1g3 (Homo sapiens, UniProt Q9Y6M4); experiment: KiNativ kinase panel; type: cell-based; settings: 1 μM, MCF-7 Cells, Lys2
T4 construct: MCF7 cells were exposed to; endogenous in cells; host or cells: MCF7
T4 sequence (Q9Y6M4 whole entry): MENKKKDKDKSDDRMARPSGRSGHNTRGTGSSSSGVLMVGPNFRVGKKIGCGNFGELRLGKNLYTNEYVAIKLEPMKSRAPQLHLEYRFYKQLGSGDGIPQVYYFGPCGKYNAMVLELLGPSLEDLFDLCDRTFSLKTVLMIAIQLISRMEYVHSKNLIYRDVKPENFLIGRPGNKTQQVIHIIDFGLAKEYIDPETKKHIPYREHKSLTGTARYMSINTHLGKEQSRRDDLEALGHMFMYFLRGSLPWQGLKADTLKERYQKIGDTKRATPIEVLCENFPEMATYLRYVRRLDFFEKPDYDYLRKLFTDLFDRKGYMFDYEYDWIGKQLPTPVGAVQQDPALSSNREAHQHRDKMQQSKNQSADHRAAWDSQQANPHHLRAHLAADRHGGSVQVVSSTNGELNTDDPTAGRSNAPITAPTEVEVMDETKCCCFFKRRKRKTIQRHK

[10] = target: T5, ULK3 (Homo sapiens, UniProt Q6PHR2); experiment: KiNativ kinase panel; type: cell-based; settings: 1 μM, MCF-7 Cells
T5 construct: endogenous in cells; host or cells: MCF7
T5 sequence (Q6PHR2 1-472): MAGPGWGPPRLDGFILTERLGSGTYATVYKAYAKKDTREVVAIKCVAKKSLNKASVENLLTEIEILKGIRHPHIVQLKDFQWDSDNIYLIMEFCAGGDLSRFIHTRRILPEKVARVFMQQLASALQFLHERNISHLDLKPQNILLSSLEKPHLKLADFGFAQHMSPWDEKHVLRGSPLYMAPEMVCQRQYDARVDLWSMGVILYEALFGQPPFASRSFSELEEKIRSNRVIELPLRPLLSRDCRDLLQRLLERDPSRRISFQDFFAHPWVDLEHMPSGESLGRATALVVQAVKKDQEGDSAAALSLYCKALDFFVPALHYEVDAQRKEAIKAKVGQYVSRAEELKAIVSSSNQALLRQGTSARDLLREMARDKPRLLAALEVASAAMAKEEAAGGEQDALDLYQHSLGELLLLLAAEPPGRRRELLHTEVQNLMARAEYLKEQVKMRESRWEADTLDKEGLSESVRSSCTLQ

[11] = target: T6, MET (Homo sapiens, UniProt P08581); experiment: KiNativ kinase panel; type: cell-based; settings: 1 μM; MCF-7 Cells; Activation Loop; TGAKLPVK
T6 construct: purchased ActivX Biosciences (KiNativ)
T6 sequence (P08581 25-1390): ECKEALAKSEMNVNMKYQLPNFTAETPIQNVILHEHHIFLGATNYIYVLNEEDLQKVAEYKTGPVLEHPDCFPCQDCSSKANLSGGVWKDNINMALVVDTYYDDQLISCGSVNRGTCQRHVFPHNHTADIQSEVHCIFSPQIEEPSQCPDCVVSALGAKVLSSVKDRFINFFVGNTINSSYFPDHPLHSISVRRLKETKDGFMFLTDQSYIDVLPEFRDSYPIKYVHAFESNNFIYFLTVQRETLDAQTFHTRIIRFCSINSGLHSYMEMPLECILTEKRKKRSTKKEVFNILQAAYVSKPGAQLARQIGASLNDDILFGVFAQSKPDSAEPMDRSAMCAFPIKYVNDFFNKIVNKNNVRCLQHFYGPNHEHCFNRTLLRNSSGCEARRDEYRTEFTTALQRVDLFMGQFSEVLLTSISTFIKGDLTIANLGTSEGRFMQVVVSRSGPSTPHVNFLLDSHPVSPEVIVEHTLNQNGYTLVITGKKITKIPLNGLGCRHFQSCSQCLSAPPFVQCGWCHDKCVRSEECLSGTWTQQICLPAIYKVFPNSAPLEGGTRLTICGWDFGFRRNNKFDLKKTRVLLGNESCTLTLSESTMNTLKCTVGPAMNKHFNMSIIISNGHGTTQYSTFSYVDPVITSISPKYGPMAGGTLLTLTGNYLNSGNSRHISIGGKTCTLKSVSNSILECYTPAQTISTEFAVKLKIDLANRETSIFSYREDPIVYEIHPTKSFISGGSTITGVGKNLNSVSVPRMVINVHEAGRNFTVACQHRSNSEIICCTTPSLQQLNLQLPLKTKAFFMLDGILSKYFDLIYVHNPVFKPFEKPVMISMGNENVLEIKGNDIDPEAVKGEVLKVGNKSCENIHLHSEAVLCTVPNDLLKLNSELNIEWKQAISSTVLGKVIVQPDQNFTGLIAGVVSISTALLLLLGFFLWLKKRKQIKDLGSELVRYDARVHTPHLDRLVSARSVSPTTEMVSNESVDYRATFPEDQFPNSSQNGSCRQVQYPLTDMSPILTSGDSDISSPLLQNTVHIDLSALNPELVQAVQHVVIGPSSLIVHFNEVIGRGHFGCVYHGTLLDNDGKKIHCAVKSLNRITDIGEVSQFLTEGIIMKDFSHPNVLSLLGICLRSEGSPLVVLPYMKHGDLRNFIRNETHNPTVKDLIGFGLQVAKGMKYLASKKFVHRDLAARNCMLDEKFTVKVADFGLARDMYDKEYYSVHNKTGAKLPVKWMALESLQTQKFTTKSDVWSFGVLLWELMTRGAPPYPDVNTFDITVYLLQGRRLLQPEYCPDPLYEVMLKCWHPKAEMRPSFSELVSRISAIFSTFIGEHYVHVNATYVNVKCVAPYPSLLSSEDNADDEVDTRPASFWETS

[12] = target: T7, MLK3 (Homo sapiens, UniProt Q16584); experiment: KiNativ kinase panel; type: cell-based; settings: 1 μM; MCF-7 Cells; Lys2; DLKSNNILLLQPIESDDMEHK
T7 construct: purchased ActivX Biosciences (KiNativ)
T7 sequence (Q16584 whole entry): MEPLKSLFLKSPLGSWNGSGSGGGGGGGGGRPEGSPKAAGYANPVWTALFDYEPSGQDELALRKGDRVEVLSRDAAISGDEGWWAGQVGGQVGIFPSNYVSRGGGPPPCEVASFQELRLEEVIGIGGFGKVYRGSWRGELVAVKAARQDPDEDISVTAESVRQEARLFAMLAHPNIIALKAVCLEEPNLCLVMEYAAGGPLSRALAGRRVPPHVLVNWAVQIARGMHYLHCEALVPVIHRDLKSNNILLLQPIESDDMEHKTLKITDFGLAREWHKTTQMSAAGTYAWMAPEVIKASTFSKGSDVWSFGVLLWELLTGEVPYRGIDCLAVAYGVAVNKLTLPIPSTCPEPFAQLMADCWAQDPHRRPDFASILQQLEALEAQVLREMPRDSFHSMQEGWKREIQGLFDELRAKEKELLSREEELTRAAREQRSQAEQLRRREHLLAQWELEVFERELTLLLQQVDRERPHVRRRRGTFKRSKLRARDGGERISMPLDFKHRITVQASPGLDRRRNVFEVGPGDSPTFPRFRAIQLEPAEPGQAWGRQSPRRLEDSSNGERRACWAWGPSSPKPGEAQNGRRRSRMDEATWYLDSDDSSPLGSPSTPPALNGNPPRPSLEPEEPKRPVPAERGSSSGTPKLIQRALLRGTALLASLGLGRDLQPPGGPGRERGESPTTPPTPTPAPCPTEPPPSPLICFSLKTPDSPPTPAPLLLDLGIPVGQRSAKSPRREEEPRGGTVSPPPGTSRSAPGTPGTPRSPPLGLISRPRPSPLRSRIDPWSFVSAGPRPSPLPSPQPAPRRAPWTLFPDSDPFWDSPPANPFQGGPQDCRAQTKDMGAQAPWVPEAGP

[13] = test system: NEK6, NEK7; experiment: KiNativ kinase panel; type: cell-based, human; settings: 1 μM, MCF-7 Cells, Lys2
[14] = target: T8, MARK4 (Homo sapiens, UniProt Q96L34); experiment: KiNativ kinase panel; type: cell-based; settings: 1 μM, MCF-7 Cells
T8 construct: purchased ActivX Biosciences (KiNativ)
T8 sequence (Q96L34 1-752): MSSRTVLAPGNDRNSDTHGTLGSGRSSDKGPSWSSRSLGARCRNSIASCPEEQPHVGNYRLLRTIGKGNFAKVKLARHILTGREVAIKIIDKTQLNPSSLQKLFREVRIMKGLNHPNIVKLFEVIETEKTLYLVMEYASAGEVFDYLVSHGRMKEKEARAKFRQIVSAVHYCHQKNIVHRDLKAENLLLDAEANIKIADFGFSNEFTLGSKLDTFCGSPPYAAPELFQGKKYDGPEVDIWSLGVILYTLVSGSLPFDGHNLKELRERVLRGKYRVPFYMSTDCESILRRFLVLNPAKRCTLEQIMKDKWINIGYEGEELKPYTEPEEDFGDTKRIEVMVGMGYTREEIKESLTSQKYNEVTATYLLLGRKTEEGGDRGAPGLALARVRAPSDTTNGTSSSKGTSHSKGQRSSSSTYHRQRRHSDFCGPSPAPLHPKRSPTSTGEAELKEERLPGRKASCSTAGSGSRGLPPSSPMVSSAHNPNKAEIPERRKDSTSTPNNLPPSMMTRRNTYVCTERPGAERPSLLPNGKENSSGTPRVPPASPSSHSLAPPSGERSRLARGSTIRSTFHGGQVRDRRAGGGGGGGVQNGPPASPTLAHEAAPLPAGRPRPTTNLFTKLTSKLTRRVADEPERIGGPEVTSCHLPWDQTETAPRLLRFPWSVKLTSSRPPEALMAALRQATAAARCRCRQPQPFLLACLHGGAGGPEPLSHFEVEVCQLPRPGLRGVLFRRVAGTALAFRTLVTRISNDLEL

[15] = Activation Loop, IGDFGLVTSLKNDGKR

Structure (SMILES)	in vitro hERG inhibition (10 μM) [2]	inhibition of the hERG ion channel [2]	KiNativ Kinase Panel Data ([3]; Lys1, VAVKILNR)	KiNativ Kinase Panel Data [4]	KiNativ Kinase Panel Data [5, 15]	KiNativ Kinase Panel Data ([5]; Lys1, TYVIKR)	KiNativ Kinase Panel Data ([5]; Lys2, DLKPSNIFLVDTK)	KiNativ Kinase Panel Data [6]	KiNativ Kinase Panel Data [7]	KiNativ Kinase Panel Data [11]	KiNativ Kinase Panel Data [12]	KiNativ Kinase Panel Data ([14]; Lys2, DLKAENLLLDAEANIK)	other results
CO[C@H]1C[C@@H]2CC[C@@H](C)[C@@](O)(O2)C(=O)C(=O)N2CCCC[C@H]2C(=O)O[C@H]([C@H](C)C[C@@H]2CC[C@@H](OC(=O)NCCOCCOCCOCCOCCOCCOCCOCCOCCC(=O)NCCS(=O)(=O)c3ccc(C(=O)N4CCOc5ccc(-c6ccc(N)nc6)cc5C4)c(C)c3F)[C@H](OC)C2)C[C@@H](O)[C@H](C)/C=C(\C)[C@@H](O)[C@@H](OC)C(=O)[C@H](C)C[C@H](C)/C=C/C=C/C=C/1C [compound 40]	6%	low	2.1	16.0	17.4	9.6	-32.5	-3.6	13.7	6.3	-12.3	22.2	IC50 ([1]; Nanosyn, with FKBP12): > 1000 nM; KiNativ Kinase Panel Data ([3]; Lys2, DLKPENVLLDAHMNAK): -1.3; KiNativ Kinase Panel Data ([8]; SKNVFYDNGK): -20.7; KiNativ Kinase Panel Data ([9]; DVKPENFLIGRPGNK): -6.6; KiNativ Kinase Panel Data ([10]; Lys1, EVVAIKCVAK): -22.8; KiNativ Kinase Panel Data ([10]; Lys2, NISHLDLKPQNILLSSLEKPHLK): -5.4; KiNativ Kinase Panel Data ([13]; DIKPANVFITATGVVK): -12.6; KiNativ Kinase Panel Data ([14]; Lys1, EVAIKIIDKTQLNPSSLQK): 24.2
CO[C@H]1C[C@@H]2CC[C@@H](C)[C@@](O)(O2)C(=O)C(=O)N2CCCC[C@H]2C(=O)O[C@H]([C@H](C)C[C@@H]2CC[C@@H](OC(=O)NCCOCCOCCOCCOCCOCCOCCOCCOCCC(=O)N3CCc4cc(Cn5nc(-c6ccc7oc(N)nc7c6)c6c(N)ncnc65)ccc4C3)[C@H](OC)C2)C[C@@H](O)[C@H](C)/C=C(\C)[C@@H](O)[C@@H](OC)C(=O)[C@H](C)C[C@H](C)/C=C/C=C/C=C/1C [compound 38]	16%	low	6.8	18.8	12.1	15.2	11.0	34.8	17.8	3.9	2.0	20.6	IC50 [1]: > 1000 nM; KiNativ Kinase Panel Data ([3]; Lys2, […]): -6.5; KiNativ Kinase Panel Data ([8]; […]): -19.2; KiNativ Kinase Panel Data ([9]; […]): 13.2; KiNativ Kinase Panel Data ([10]; Lys1, […]): 0.5; KiNativ Kinase Panel Data ([10]; Lys2, […]): 11.9; KiNativ Kinase Panel Data ([13]; […]): 11.1; KiNativ Kinase Panel Data ([14]; Lys1, […]): 7.0
